Laboratory results: PMC5854746 (Cancer Chemotherapy and Pharmacology, 2018)
Values joined by “and” are separate entries in the source; they are usually repeats but may differ in a detail not shown here. Identical values can stand only once. “Also recorded” adds a separate entry of the source. Like-named read-outs stand apart in the source and are kept apart here.

Tests used:
[1] = test system: plasma proteins, mainly albumin and α-1 acid glycoprotein; details: cited from earlier work
[2] = clinical; details: human, plasma; for clearance: Cltot; for half-life: T 1/2el; for Vd: V d; for AUC(0-t): 100 mg p.o.
[3] = oral; 9 (ref 1, 11); cited from earlier work
[4] = cited from earlier work
[5] = Optimized value, updated based on literature data ref 1, 32; cited from earlier work
[6] = oral, mean ± SD, Day 1, observed, n=26, calculated with a bioavailability of 60%
[7] = oral, min–max, Day 1, observed, n=26
[8] = Day 3, observed, 100 mg p.o. q.d., n=26
[9] = Day 6 (steady state), observed, 100 mg p.o. q.d., n=26
[10] = co-administered ARAs, study population
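Throughout, for C last (trough at 24 h), mean ± SD: plasma pharmacokinetics in a phase 1b study of patients with locally advanced or metastatic pancreatic adenocarcinoma.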
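Throughout, for C peak, mean ± SD: plasma pharmacokinetics in a phase 1b study of patients with locally advanced or metastatic pancreatic adenocarcinoma.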
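Throughout, for Tmax: plasma pharmacokinetics in a phase 1b study of patients with locally advanced or metastatic pancreatic adenocarcinoma.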
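Throughout, for Vd: plasma pharmacokinetics in a phase 1b study of patients with locally advanced or metastatic pancreatic adenocarcinoma.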

C#Cc1cccc(Nc2ncnc3cc(OCCOC)c(OCCOC)cc23)c1 [erlotinib]
Bound to plasma proteins [1]: approximately 95%
clearance [2, 6]: 91.8 mL/min
clearance [2, 7]: 7.83 to 502 mL/min
concentration at 24 h ([2]; oral, Mean erlotinib trough concentrations calculated for each patient, range, long-term study, 10 patients, 100 mg q.d.): 60 to 1780 ng/mL
concentration at 24 h ([2]; oral, Mean trough concentration ± SD, Pat.1, weeks 1–15, N=10, 100 mg erlotinib q.d.): 1670 ± 440 ng/mL
concentration at 24 h ([2]; oral, Mean trough concentration ± SD, Pat.10, co-medication of acid reducing agents, weeks 1–11, N=11, 100 mg q.d.): 160 ± 60 ng/mL
concentration at 24 h ([2]; oral, Mean trough concentration ± SD, Pat.2, co-medication of acid reducing agents, weeks 1–9, N=9, 100 mg q.d.): 160 ± 40 ng/mL
concentration at 24 h ([2]; oral, Mean trough concentration ± SD, Pat.8, co-medication of acid reducing agents, weeks 1–16, N=16, 100 mg q.d.): 270 ± 380 ng/mL
concentration at 24 h ([2]; oral, Mean trough concentration ± SD, Pat.9, co-medication of acid reducing agents, weeks 1–50, N=47, 100 mg q.d.): 60 ± 40 ng/mL
half-life ([2]; oral, mean ± SD, Day 1, observed, n=26): 18.7 ± 13.1 h
half-life [2, 7]: 4.1 to 59 h
concentration at 24 h ([2]; oral, Trough concentration min–max, Pat.1, weeks 1–15, N=10, 100 mg erlotinib q.d.): 770 to 2200 ng/mL
concentration at 24 h ([2]; oral, Trough concentration min–max, Pat.10, co-medication of acid reducing agents, weeks 1–11, N=11, 100 mg q.d.): 70 to 310 ng/mL
concentration at 24 h ([2]; oral, Trough concentration min–max, Pat.8, co-medication of acid reducing agents, weeks 1–16, N=16, 100 mg q.d.): 20 to 1310 ng/mL
concentration at 24 h ([2]; oral, Trough concentration min–max, Pat.9, co-medication of acid reducing agents, weeks 1–50, N=47, 100 mg q.d.): 10 to 160 ng/mL
concentration at 24 h ([2]; oral, Trough plasma concentrations, range, long-term assessment (up to 50 weeks), 100 mg q.d., 10 patients): 10 to 2400 ng/mL
Vd [2, 6]: 97.9 ± 61.7 L
Vd [2, 7]: 18 to 268 L
Tmax ([2]; po, 100 mg): 1 to 8 h
AUC(0-t) ([2]; po, 100 mg, AUC0–24, mean ± SD, Day 1, observed, n=26): 12500 ± 9380 ng·h/mL
AUC(0-t) ([2]; po, 100 mg, AUC0–24, min–max, Day 1, observed, n=26): 1230 to 36400 ng·h/mL
concentration at 24 h ([2]; po, C last (trough at 24 h), mean ± SD, Day 1, observed, 100 mg p.o. q.d., n=26): 330 ng/mL
concentration at 24 h ([2]; po, C last (trough at 24 h), min–max, Day 1, observed, 100 mg p.o. q.d., n=26): 40 to 1220 ng/mL
Bioavailability (estimated) [3]: 60%
C peak, mean ± SD (Day 1, observed, 100 mg erlotinib p.o. q.d., patients n=26, arithmetic mean): 0.84 µg/mL and 0.84 ± 0.54 µg/mL
C last (trough at 24 h), mean ± SD (Day 1, observed, 100 mg p.o. q.d., n=26): 330 ± 290 ng/mL
T max, median (Day 1, observed, 100 mg p.o., n=26): 2.00 h
C peak, mean ± SD [8]: 1.04 ± 0.62 µg/mL
C trough, mean ± SD [8]: 450 ± 370 ng/mL
C peak, mean ± SD [9]: 1.38 µg/mL and 1.38 ± 0.66 µg/mL
C trough, mean ± SD [9]: 720 ng/mL and 720 ± 530 ng/mL
Mean trough concentration ± SD (Pat.3, weeks 1–50, N=50, 100 mg q.d.): 0.89 ± 0.68 µg/mL
Mean trough concentration ± SD (Pat.4, weeks 1–8, N=7, 100 mg q.d.): 0.66 ± 0.27 µg/mL
Mean trough concentration ± SD (Pat.5, co-medication of acid reducing agents, weeks 1–4, N=4, 100 mg q.d.): 0.37 ± 0.09 µg/mL
Mean trough concentration ± SD (Pat.6, weeks 1–8, N=8, 100 mg q.d.): 1.78 ± 0.74 µg/mL
Mean trough concentration ± SD (Pat.7, weeks 1–9, N=9, 100 mg q.d.): 1.20 ± 0.51 µg/mL
Reduction of AUC0–24 [10]: 52%
Reduction of Cmax [10]: 56%
Patients with concentrations below the activity threshold of 0.5 µg/ml (during the first week): 7%
Patients that never reached the threshold of 0.5 µg/ml (first week of erlotinib therapy): 2 of the 26 patients
Patients with Ctrough values below the activity threshold (long-term analysis, all received ARAs concomitantly): 5 of the 10 patients
Accumulation of erlotinib in plasma (long-term monitoring up to 50 weeks, 100 mg q.d.): did not show any significant accumulation; also recorded: did not lead to drug accumulation
Patients that did not reach the threshold of 0.5 µg/ml (within 24 h after the first administration): 10 of the 26 patients
Solubility in water ([4]; free base): only very slightly soluble in water
Biopharmaceutics Classification System (BCS) class ([4]; low solubility, high permeability): class II
pKa ([4]; weak base, limited solubility at pH above it): 5.4
Basic pKa [5]: 5.4
Intrinsic solubility [5]: 8.9 µg/mL
